pIC50, pKi: −log10 of the molar value. Where a SMILES comes first, the peptide text is derived from it. [ ]: non-standard residue; d: D form. PEG6 = NCCOCCOCCOCCOCCOCCOCCC(=O)O
Experiments:
[1] = Stability of compound in PBS buffer measured after 1 day at room temperature by HPLC analysis; assay type: physicochemical; conditions: 24 h
[2] = molecular target: T1, Alpha-cobratoxin (Naja kaouthia, UniProt P01391); experiment: Displacement of TAMRA-HAKTYMWDGWYMPTSH-NH2 from Naja kaouthia alpha-cobratoxin by fluorescence polarization assay
T1 sequence (P01391 whole entry): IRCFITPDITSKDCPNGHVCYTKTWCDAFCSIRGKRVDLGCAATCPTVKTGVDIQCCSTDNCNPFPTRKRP

[3] = Stability of compound in PBS buffer assessed as compound degradation measured after 9 days at room temperature by HPLC analysis; assay type: physicochemical; conditions: time 9 day, read-out: Drug degradation
[4] = Stability of compound in PBS buffer measured after 1 day at 37 degC by HPLC analysis; assay type: physicochemical; conditions: 24 h
[5] = Stability of compound in PBS buffer assessed as compound degradation measured after 2 days at 37 degC by HPLC analysis; assay type: physicochemical; conditions: time 2 day, read-out: Drug degradation

CSCC[C@H](NC(=O)[C@H](Cc1ccc(O)cc1)NC(=O)[C@H](Cc1c[nH]c2ccccc12)NC(=O)CNC(=O)[C@H](CC(=O)O)NC(=O)[C@H](Cc1c[nH]c2ccccc12)NC(=O)[C@H](CCSC)NC(=O)[C@H](Cc1ccc(O)cc1)NC(=O)CCOCCOCCOCCOCCOCCOCCN)C(N)=O (H-[PEG6]YMWDGWYM-NH2)
Stabilty [1]: Stable
pKi [2]: 4.59
degraded at 216 h [3]: 7%
Stabilty [4]: Stable
degraded at 48 h [5]: 7%

Ac-HAKTYMWDGWYMPTSH-NH2
Stabilty [1]: Stable
pIC50 [2]: 4.54
pKi [2]: 5.70
Stabilty [4]: Stable
